# System: RAW264.7
# Experiment: Antiinflammatory activity in mouse RAW264.7 cells assessed as inhibition of LPS-induced NO production incubated for 24 hrs in presence of LPS by Griess reagent-based assay
# Type: functional, cell-based
# Conditions: RAW264.7, 24 h
row,IC50,Structure (SMILES)
1,1.6 µM,C/C(=C\[C@H]1C[C@@](O)([C@@H]2CC[C@]34C[C@]23C=CC2[C@@]4(C)[C@H](O)C[C@H]3C(C)(C)/C(=C/C(=O)c4ccccc4)C(=O)C[C@]23C)C(=O)O1)CO (some centres undefined)
2,3.5 µM,C/C(=C\[C@H]1C[C@@](O)([C@@H]2CC[C@]34C[C@]23C=CC2[C@@]3(C)CC(=O)/C(=C\C(=O)c5ccccc5)C(C)(C)[C@@H]3CC(=O)[C@]24C)C(=O)O1)CO (some centres undefined)
3,11.4 µM,C/C(=C\[C@H]1C[C@@](O)([C@@H]2CC[C@]34C[C@]23C=CC2[C@]3(C)C(CC(=O)[C@]24C)C(C)(C)[C@@]2(CC(=O)c4ccccc4)O[C@@H]3OC2=O)C(=O)O1)CO (some centres undefined)
4,6.9 µM,C[C@@H]1C[C@H]2[C@@H]3CCC4=CC(=O)C=C[C@]4(C)[C@@]3(F)[C@@H](O)C[C@]2(C)[C@@]1(O)C(=O)CO [DEXAMETHASONE]

# — ChEMBL document CHEMBL4825675, “Longipetalol A: A Highly Modified Triterpenoid from Dichapetalum longipetalum” (J Nat Prod, 2021)
